Source: patent US20250115583A1, “BICYCLIC INDAZOLE GLUCOCORTICOID RECEPTOR ANTAGONISTS” (Corcept Therapeutics Incorporated, priority 2021, published 2025)

Molecular target: glucocorticoid receptor (Homo sapiens (Human), UniProt P04150)
Assay: HepG2 TAT assay: inhibition of dexamethasone-induced tyrosine aminotransferase (TAT) activity
Assay type: cell-based
Settings: HepG2 cells, challenge of 100 nM dexamethasone, 18-24 hr; IC50 converted to Ki by Cheng and Prusoff equation
Procedure, shortened: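 Cells lysed 15 min at 4 °C; TAT enzyme reaction 2 h at 37 °C, stopped with KOH, 30 min further at 37 °C. Inhibition fitted to 4-parameter logistic.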

Chain of glucocorticoid receptor (P04150 whole entry): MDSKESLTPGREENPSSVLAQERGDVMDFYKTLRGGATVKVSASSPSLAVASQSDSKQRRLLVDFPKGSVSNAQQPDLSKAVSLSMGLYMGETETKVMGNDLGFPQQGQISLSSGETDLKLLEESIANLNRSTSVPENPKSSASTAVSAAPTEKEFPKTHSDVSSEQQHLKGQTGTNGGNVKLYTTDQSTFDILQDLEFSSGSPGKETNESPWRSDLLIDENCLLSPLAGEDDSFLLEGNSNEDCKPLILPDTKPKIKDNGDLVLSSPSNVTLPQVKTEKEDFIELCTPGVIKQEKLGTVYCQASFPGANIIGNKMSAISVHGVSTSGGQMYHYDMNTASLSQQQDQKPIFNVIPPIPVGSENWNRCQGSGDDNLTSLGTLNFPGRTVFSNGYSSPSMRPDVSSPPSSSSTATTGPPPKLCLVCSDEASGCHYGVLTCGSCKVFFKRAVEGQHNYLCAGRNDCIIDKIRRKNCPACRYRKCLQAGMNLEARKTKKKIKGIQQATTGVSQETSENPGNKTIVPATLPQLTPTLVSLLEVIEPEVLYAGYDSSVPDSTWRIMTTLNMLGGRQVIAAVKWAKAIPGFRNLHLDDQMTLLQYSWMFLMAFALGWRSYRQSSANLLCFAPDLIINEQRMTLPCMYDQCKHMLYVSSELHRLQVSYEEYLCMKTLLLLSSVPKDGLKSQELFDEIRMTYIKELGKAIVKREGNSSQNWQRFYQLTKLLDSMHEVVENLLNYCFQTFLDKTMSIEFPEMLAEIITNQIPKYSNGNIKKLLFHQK

SMILES | Ki [µM]
CO[C@]1(c2ccccc2)C[C@@H]2CN(S(=O)(=O)c3cnn(C)c3)C[C@]2(c2cc3cnn(-c4ccc(F)cc4)c3cc2C)C1 [Example 5, 1-(4-fluorophenyl)-5-((3aR,5R,6aS)-5-methoxy-2-((1-methyl-1H-pyrazol-4-yl)sulfonyl)-5-phenylhexahydrocyclopenta[c]pyrrol-3a(1H)-yl)-6-methyl-1H-indazole] | 0.24
CO[C@@]1(c2ccccc2)C[C@H]2CN(S(=O)(=O)c3cnn(C)c3)C[C@@]2(c2cc3cnn(-c4ccc(F)cc4)c3cc2C)C1 [Example 6, 1-(4-fluorophenyl)-5-((3aS,5S,6aR)-5-methoxy-2-((1-methyl-1H-pyrazol-4-yl)sulfonyl)-5-phenylhexahydrocyclopenta[c]pyrrol-3a(1H)-yl)-6-methyl-1H-indazole] | 0.044
CO[C@@]1(c2ccccc2)C[C@@H]2CN(S(=O)(=O)c3cnn(C)c3)C[C@]2(c2cc3cnn(-c4ccc(F)cc4)c3cc2C)C1 [Example 7, 1-(4-fluorophenyl)-5-((3aR,5S,6aS)-5-methoxy-2-((1-methyl-1H-pyrazol-4-yl)sulfonyl)-5-phenylhexahydrocyclopenta[c]pyrrol-3a(1H)-yl)-6-methyl-1H-indazole] | 0.35
CO[C@]1(c2ccccc2)C[C@H]2CN(S(=O)(=O)c3cnn(C)c3)C[C@@]2(c2cc3cnn(-c4ccc(F)cc4)c3cc2C)C1 [Example 8, 1-(4-fluorophenyl)-5-((3aS,5R,6aR)-5-methoxy-2-((1-methyl-1H-pyrazol-4-yl)sulfonyl)-5-phenylhexahydrocyclopenta[c]pyrrol-3a(1H)-yl)-6-methyl-1H-indazole] | 0.31
Cc1cc2c(cnn2-c2ccc(F)cc2)cc1C12CN(S(C)(=O)=O)CC1CC(O)(c1ccccc1)C2 (centres unmarked) [Example 9] | 0.13
Cc1cc2c(cnn2-c2ccc(F)cc2)cc1C12CN(S(=O)(=O)c3cnn(C)c3)CC1CC(O)(c1ccccc1)C2 (centres unmarked) [Example 10, 3a-(1-(4-fluorophenyl)-6-methyl-1H-indazol-5-yl)-2-((1-methyl-1H-pyrazol-4-yl)sulfonyl)-5-phenyloctahydrocyclopenta[c]pyrrol-5-ol] | 0.22
COC1(c2ccccc2)CC2CN(S(=O)(=O)c3cnn(C)c3)CC2(c2cc3cnn(-c4ccc(F)cc4)c3cc2C)C1 (centres unmarked) [Example 11, 1-(4-Fluorophenyl)-5-(5-methoxy-2-((1-methyl-1H-pyrazol-4-yl)sulfonyl)-5-phenylhexahydrocyclopenta[c]pyrrol-3a(1H)-yl)-6-methyl-1H-indazole] | 0.033
CCOC1(c2ccccc2)CC2CN(S(=O)(=O)c3cnn(C)c3)CC2(c2cc3cnn(-c4ccc(F)cc4)c3cc2C)C1 (centres unmarked) [Example 12] | 0.17
COC1(c2ccccc2)CC2CN(S(C)(=O)=O)CC2(c2cc3cnn(-c4ccc(F)cc4)c3cc2C)C1 (centres unmarked) [Example 13] | 0.078
COC1(c2cccc(C)c2)CC2CN(S(=O)(=O)c3cnn(C)c3)CC2(c2cc3cnn(-c4ccc(F)cc4)c3cc2C)C1 (centres unmarked) [Example 14] | 0.11
Cc1cc2c(cnn2-c2ccc(F)cc2)cc1C12CN(S(=O)(=O)c3cnn(C)c3)CC1CC(O)(c1ccccn1)C2 (centres unmarked) [Example 15] | 0.33
CC#CC1(OC)CC2CN(S(=O)(=O)c3cnn(C)c3)CC2(c2cc3cnn(-c4ccc(F)cc4)c3cc2C)C1 (centres unmarked) [Example 16] | 0.27
Cc1cc2c(cnn2-c2ccc(F)cc2)cc1C12CN(C(=O)OC(C)(C)C)CC1CC(O)(c1ccccc1)C2 (centres unmarked) [Example 17, tert-butyl 3a-(1-(4-fluorophenyl)-6-methyl-1H-indazol-5-yl)-5-hydroxy-5-phenylhexahydrocyclopenta[c]pyrrole-2(1H)-carboxylate] | 0.042
COC1(c2ccccc2)CC2CN(C(=O)OC(C)(C)C)CC2(c2cc3cnn(-c4ccc(F)cc4)c3cc2C)C1 (centres unmarked) [Example 18, tert-butyl 3a-(1-(4-fluorophenyl)-6-methyl-1H-indazol-5-yl)-5-methoxy-5-phenylhexahydrocyclopenta[c]pyrrole-2(1H)-carboxylate] | 0.044
CCn1cc(S(=O)(=O)N2C[C@@H]3C[C@@](OC)(c4ccccc4)C[C@]3(c3cc4cnn(-c5ccc(F)cc5)c4cc3C)C2)cn1 [Example 21] | 0.037
CCCn1cc(S(=O)(=O)N2C[C@@H]3C[C@](OC)(c4ccccc4)C[C@]3(c3cc4cnn(-c5ccc(F)cc5)c4cc3C)C2)cn1 [Example 22] | 0.032

SMILES | Ki [µM]
CO[C@@]1(c2ccccc2)C[C@H]2CN(S(=O)(=O)c3cnn(C(C)C)n3)C[C@@]2(c2cc3cnn(-c4ccc(F)cc4)c3cc2C)C1 [Example 23] | 0.03
CO[C@@]1(c2ccccc2)C[C@H]2CN(S(=O)(=O)C3CC3)C[C@@]2(c2cc3cnn(-c4ccc(F)cc4)c3cc2C)C1 [Example 24] | 0.032
CO[C@]1(c2ccccc2)C[C@@H]2CN(S(=O)(=O)c3cncc(F)c3)C[C@]2(c2cc3cnn(-c4ccc(F)cc4)c3cc2C)C1 [Example 25] | 0.052
CCn1ncc(S(=O)(=O)N2CC3CC(OC)(c4ccccc4)CC3(c3cc4cnn(-c5ccc(F)cc5)c4cc3C)C2)n1 (centres unmarked) [Example 26] | 0.053
CCCn1ncc(S(=O)(=O)N2CC3CC(OC)(c4ccccc4)CC3(c3cc4cnn(-c5ccc(F)cc5)c4cc3C)C2)n1 (centres unmarked) [Example 27] | 0.078
COC1(c2ccccc2)CC2CN(S(=O)(=O)C3(C)CC3)CC2(c2cc3cnn(-c4ccc(F)cc4)c3cc2C)C1 (centres unmarked) [Example 28] | 0.032
COC1(c2ccccc2)CC2CN(S(=O)(=O)C(C)C)CC2(c2cc3cnn(-c4ccc(F)cc4)c3cc2C)C1 (centres unmarked) [Example 30] | 0.032
COC1(c2ccccc2)CC2CN(S(=O)(=O)c3ccn(C)n3)CC2(c2cc3cnn(-c4ccc(F)cc4)c3cc2C)C1 (centres unmarked) [Example 31] | 0.13
CO[C@]1(c2ccccc2)C[C@@H]2CN(C(C)=O)C[C@]2(c2cc3cnn(-c4ccc(F)cc4)c3cc2C)C1 [Example 33] | 0.22
COC1CC2CN(S(C)(=O)=O)CC2(c2cc3cnn(-c4ccc(F)cc4)c3cc2C)C1 (centres unmarked) [Example 34, 1-(4-fluorophenyl)-5-(5-methoxy-2-(methylsulfonyl)hexahydrocyclopenta[c]pyrrol-3a(1H)-yl)-6-methyl-1H-indazole] | 0.8
Cc1cc2c(cnn2-c2ccc(F)cc2)cc1C12CC(OCc3ccccc3)CC1CN(C(=O)OC(C)(C)C)C2 (centres unmarked) [Example 35, tert-butyl 5-(benzyloxy)-3a-(1-(4-fluorophenyl)-6-methyl-1H-indazol-5-yl)hexahydrocyclopenta[c]pyrrole-2(1H)-carboxylate] | 0.16
Cc1cc2c(cnn2-c2ccc(F)cc2)cc1C12CC(Oc3ccccc3)CC1CN(S(C)(=O)=O)C2 (centres unmarked) [Example 36, 1-(4-fluorophenyl)-6-methyl-5-(2-(methylsulfonyl)-5-phenoxyhexahydrocyclopenta[c]pyrrol-3a(1H)-yl)-1H-indazole] | 0.072
Cc1cc2c(cnn2-c2ccc(F)cc2)cc1C12CC(Oc3ccccc3)CC1CN(S(C)(=O)=O)C2 (centres unmarked) [Example 37, 1-(4-fluorophenyl)-6-methyl-5-(2-(methylsulfonyl)-5-phenoxyhexahydrocyclopenta[c]pyrrol-3a(1H)-yl)-1H-indazole] | 0.17
Cc1cc2c(cnn2-c2ccc(F)cc2)cc1C12CC(Oc3ccccc3)CC1CN(S(C)(=O)=O)C2 (centres unmarked) [Example 38] | 0.097
Cc1cc2c(cnn2-c2ccc(F)cc2)cc1C12CC(Oc3ccccc3)CC1CN(C(=O)c1ccccc1)C2 (centres unmarked) [Example 39] | 0.19
CC(=O)N1CC2CC(Oc3ccccc3)CC2(c2cc3cnn(-c4ccc(F)cc4)c3cc2C)C1 (centres unmarked) [Example 40] | 0.42
